Consider 20 molecules from patent US7795444B2, “Human protein tyrosine phosphatase inhibitors and methods of use” (Warner Chilcott Company, priority 2006, dated 2010).

For one assay, the target named is T1, PTP1B (Homo sapiens, UniProt P18031).
T1 sequence (P18031 1-435): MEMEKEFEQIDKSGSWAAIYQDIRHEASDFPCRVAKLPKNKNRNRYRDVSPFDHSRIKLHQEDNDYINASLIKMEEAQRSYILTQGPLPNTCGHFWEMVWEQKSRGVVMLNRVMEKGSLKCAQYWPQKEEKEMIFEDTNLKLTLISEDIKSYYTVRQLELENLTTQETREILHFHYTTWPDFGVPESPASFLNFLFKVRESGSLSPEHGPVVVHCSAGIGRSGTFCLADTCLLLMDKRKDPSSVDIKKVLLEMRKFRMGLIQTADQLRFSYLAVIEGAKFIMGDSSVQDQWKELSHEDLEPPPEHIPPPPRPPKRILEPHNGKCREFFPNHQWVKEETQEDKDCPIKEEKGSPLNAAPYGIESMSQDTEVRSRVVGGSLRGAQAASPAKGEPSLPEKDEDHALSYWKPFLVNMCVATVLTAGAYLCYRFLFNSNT
In words: PTP1B inhibition, IC50 (Table A). The format is biochemical.

The target of the next assay is HPTPβ (Homo sapiens, UniProt P23467). In words: HPTPβ inhibition, IC50 (Table A). The format is biochemical.
Chain of HPTPβ (P23467 23-1997): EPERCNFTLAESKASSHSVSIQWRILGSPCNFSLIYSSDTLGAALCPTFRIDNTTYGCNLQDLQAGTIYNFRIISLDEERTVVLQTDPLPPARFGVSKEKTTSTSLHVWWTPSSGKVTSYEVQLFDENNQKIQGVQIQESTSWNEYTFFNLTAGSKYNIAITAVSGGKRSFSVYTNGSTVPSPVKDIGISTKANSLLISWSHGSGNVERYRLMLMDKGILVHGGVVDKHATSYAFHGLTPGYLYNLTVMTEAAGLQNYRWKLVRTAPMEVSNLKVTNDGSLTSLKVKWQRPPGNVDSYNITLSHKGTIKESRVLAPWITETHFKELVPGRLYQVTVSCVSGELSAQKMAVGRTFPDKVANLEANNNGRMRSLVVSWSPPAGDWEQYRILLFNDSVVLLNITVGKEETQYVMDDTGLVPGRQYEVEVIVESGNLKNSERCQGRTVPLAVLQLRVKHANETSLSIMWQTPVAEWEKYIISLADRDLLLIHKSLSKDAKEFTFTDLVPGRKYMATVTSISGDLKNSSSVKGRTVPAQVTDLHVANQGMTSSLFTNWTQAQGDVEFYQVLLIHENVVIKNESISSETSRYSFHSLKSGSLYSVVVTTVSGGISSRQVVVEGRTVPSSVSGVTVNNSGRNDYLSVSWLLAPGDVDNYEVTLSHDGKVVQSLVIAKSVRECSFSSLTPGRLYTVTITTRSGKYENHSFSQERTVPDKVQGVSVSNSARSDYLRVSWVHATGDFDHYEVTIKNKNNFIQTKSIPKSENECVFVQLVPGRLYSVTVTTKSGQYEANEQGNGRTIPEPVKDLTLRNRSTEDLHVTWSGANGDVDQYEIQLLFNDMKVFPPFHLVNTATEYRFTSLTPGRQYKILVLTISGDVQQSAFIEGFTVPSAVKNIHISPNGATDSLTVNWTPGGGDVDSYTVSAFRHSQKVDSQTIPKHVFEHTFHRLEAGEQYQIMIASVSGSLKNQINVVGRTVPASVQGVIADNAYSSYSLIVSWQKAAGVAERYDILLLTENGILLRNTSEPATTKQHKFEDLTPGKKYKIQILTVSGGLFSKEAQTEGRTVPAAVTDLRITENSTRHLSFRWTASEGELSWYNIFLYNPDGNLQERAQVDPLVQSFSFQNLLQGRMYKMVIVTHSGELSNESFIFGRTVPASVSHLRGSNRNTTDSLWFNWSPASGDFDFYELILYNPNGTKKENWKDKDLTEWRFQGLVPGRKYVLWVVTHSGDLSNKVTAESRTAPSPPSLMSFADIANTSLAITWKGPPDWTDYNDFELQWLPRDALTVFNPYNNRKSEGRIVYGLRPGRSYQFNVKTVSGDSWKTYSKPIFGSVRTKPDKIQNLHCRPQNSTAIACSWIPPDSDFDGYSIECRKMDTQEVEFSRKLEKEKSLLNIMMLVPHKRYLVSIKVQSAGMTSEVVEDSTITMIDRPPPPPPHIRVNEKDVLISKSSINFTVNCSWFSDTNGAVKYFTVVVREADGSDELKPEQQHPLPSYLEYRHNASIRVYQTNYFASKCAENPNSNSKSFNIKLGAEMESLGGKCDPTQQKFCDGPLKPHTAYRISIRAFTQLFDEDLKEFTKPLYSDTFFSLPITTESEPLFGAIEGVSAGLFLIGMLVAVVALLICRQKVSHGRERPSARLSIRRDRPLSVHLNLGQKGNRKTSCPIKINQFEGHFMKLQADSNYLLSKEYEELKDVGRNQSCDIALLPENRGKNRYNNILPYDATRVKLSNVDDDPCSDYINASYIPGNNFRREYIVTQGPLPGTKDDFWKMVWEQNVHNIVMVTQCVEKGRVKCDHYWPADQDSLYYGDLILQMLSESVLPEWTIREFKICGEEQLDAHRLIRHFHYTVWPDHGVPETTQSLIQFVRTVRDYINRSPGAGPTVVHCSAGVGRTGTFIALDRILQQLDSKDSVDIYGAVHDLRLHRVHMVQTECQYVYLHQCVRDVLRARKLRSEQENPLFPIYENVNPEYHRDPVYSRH

As for `CCc1csc([C@H](Cc2ccc(NS(=O)(=O)O)cc2)NC(=O)CCc2ccccc2OC)n1` [(S)-4-(2-(4-Ethylthiazol-2-yl)-2-(3-(2-methoxyphenyl)propanamido)ethyl)phenyl-sulfamic acid], the IC50 against PTP1B worked out at 16900 nM; against HPTPβ, 3 nM.

On to `CCc1csc([C@H](Cc2ccc(NS(=O)(=O)O)cc2)NC(=O)Cc2cccc(OC)c2)n1` [(S)-4-(2-(4-Ethylthiazol-2-yl)-2-(2-(3-methoxyphenyl)acetamido)ethyl)phenyl-sulfamic acid], for which the IC50 is 4050 nM against PTP1B and 8 nM at HPTPβ.

For `CCc1csc([C@H](Cc2ccc(NS(=O)(=O)O)cc2)NC(=O)CCc2cccc(OC)c2)n1` [(S)-4-(2-(4-Ethylthiazol-2-yl)-2-(3-(3-methoxyphenyl)propanamido)ethyl)phenyl-sulfamic acid], the values for the IC50 at PTP1B and against HPTPβ were 20600 nM and 10 nM, respectively.

Turning to `CCc1csc([C@H](Cc2ccc(NS(=O)(=O)O)cc2)NC(=O)Cc2ccccc2Cl)n1` [(S)-4-(2-(2-(2-Chlorophenyl)acetamido)-2-(4-ethylthiazol-2-yl)ethyl)phenyl-sulfamic acid], the IC50 is 22800 nM at PTP1B and 56 nM against HPTPβ.

Take `CCc1csc([C@H](Cc2ccc(NS(=O)(=O)O)cc2)NC(=O)Cc2ccccc2)n1` [(S)-{4-[2-(4-Ethylthiazol-2-yl)-2-(phenylacetylamido)ethyl]-phenyl}sulfamic acid]: the IC50 came to 22900 nM against PTP1B and 50 nM against HPTPβ.

As to `CCc1csc([C@H](Cc2ccc(NS(=O)(=O)O)cc2)NC(=O)Cc2cccc(O)c2)n1` [(S)-4-(2-(4-Ethylthiazol-2-yl)-2-(2-(3-hydroxyphenyl)acetamido)ethyl)phenyl-sulfamic acid], the results for the IC50 against PTP1B and on HPTPβ were 6570 nM and 40 nM, respectively.

Regarding `CCc1csc([C@H](Cc2ccc(NS(=O)(=O)O)cc2)NC(=O)CCc2ccc(OC)cc2)n1` [(S)-4-(2-(4-Ethylthiazol-2-yl)-2-(3-(4-methoxyphenyl)propanamido)ethyl)phenyl-sulfamic acid], the 50% inhibitory concentration (IC50) at PTP1B was determined as 16000 nM; at HPTPβ it was 6 nM.

Take `CCc1csc([C@H](Cc2ccc(NS(=O)(=O)O)cc2)NC(=O)Cc2ccccc2F)n1` [(S)-4-(2-(4-Ethylthiazol-2-yl)-2-(2-(2-fluorophenyl)acetamido)ethyl)phenyl-sulfamic acid]: the IC50 against PTP1B was found to be 5360 nM; on HPTPβ, 12 nM.

On to `CCc1csc([C@H](Cc2ccc(NS(=O)(=O)O)cc2)NC(=O)CCc2cccc(Cl)c2)n1` [(S)-4-(2-(3-(3-Chlorophenyl)propanamido)-2-(4-ethylthiazol-2-yl)ethyl)phenyl-sulfamic acid], for which the IC50 on PTP1B was 15300 nM; against HPTPβ, 0.2 nM.

Take `CCc1csc([C@H](Cc2ccc(NS(=O)(=O)O)cc2)NC(=O)Cc2cccc(OC)c2OC)n1` [(S)-4-(2-(2-(2,3-Dimethoxyphenyl)acetamido)-2-(4-ethylthiazol-2-yl)ethyl)-phenylsulfamic acid]: the half-maximal inhibitory concentration (IC50) came to 25400 nM at PTP1B and 37 nM against HPTPβ.

With `CCc1csc([C@H](Cc2ccc(NS(=O)(=O)O)cc2)NC(=O)Cn2cc(C)c(=O)[nH]c2=O)n1` [(S)-4-{2-(4-Ethylthiazol-2-yl)-2-[2-(5-methyl-2,4-dioxo-3,4-dihydropyrimidin-1(2H)-yl)acetamido]ethyl}phenylsulfamic acid], the values for the 50% inhibitory concentration (IC50) at PTP1B and against HPTPβ were 254 nM and 2 nM, respectively.

As for `CCc1csc([C@H](Cc2ccc(NS(=O)(=O)O)cc2)NC(=O)Cc2cccc(Cl)c2)n1` [(S)-4-(2-(2-(3-Chlorophenyl)acetamido)-2-(4-ethylthiazol-2-yl)ethyl)phenyl-sulfamic acid], the half-inhibitory concentration (IC50) worked out at 13600 nM against PTP1B and 33 nM at HPTPβ.

On to `CCc1csc([C@H](Cc2ccc(NS(=O)(=O)O)cc2)NC(=O)CCc2ccccc2)n1` [(S)-4-(2-(4-Ethylthiazol-2-yl)-2-(3-phenylpropanamido)ethyl)phenylsulfamic acid], for which the IC50 amounted to 10400 nM against PTP1B and 2 nM on HPTPβ.

Consider `CCc1csc([C@H](Cc2ccc(NS(=O)(=O)O)cc2)NC(=O)c2ccc3c(c2)OCO3)n1` [(S)-4-[2-(Benzo[d][1,3]dioxole-5-carboxamido)-2-(4-ethylthiazol-2-yl)ethyl]phenylsulfamic acid], for which the figures for the IC50 at PTP1B and against HPTPβ were 19000 nM and 42 nM, respectively.

With `CCc1csc([C@H](Cc2ccc(NS(=O)(=O)O)cc2)NC(=O)Cc2cccc(F)c2F)n1` [(S)-4-(2-(2-(2,3-Difluorophenyl)acetamido)-2-(4-ethylthiazol-2-yl)ethyl)phenyl-sulfamic acid], the half-maximal inhibitory concentration (IC50) at PTP1B was found to be 5360 nM; at HPTPβ, 28 nM.

As for `CCc1csc([C@H](Cc2ccc(NS(=O)(=O)O)cc2)NC(=O)Cc2ccc(F)c(F)c2)n1` [(S)-4-(2-(2-(3,4-Difluorophenyl)acetamido)-2-(4-ethylthiazol-2-yl)ethyl)phenyl-sulfamic acid], the IC50 against PTP1B was determined as 23900 nM; against HPTPβ, 75 nM.

With `CCc1csc([C@H](Cc2ccc(NS(=O)(=O)O)cc2)NC(=O)Cc2ccc(OC)c(OC)c2)n1` [(S)-4-(2-(2-(3,4-Dimethoxyphenyl)acetamido)-2-(4-ethylthiazol-2-yl)ethyl)-phenylsulfamic acid], the IC50 against PTP1B turned out to be 15500 nM; at HPTPβ it was 28 nM.

For `CCc1csc([C@H](Cc2ccc(NS(=O)(=O)O)cc2)NC(=O)CN2CCN(CC)C(=O)C2=O)n1` [(S)-4-{2-[2-(4-Ethyl-2,3-dioxopiperazin-1-yl)acetamido]-2-(4-ethylthiazol-2-yl)ethyl}phenylsulfamic acid], the IC50 at PTP1B is 530 nM; on HPTPβ it was 2 nM.

On to `CCc1csc([C@H](Cc2ccc(NS(=O)(=O)O)cc2)NC(=O)Cc2cccc(F)c2)n1` [(S)-4-(2-(4-Ethylthiazol-2-yl)-2-(2-(3-fluorophenyl)acetamido)ethyl)phenyl-sulfamic acid], for which the half-inhibitory concentration (IC50) came out at 2850 nM against PTP1B and 0.3 nM at HPTPβ.

As for “(S)-4-(2-(4-Ethylthiazol-2-yl)-2-(2-(2-methoxyphenyl)acetamido)ethyl)phenyl-sulfamic acid”, the 50% inhibitory concentration (IC50) against PTP1B came out at 11700 nM; on HPTPβ, 14 nM.
